Measurements as given in patent US20100048641A1, “Use of Adenosine A1 and/or Dual A1/2ab Agonists for Production of Medicaments for Treating Diseases” (BAYER HEALTHCARE AG LAW AND PATENTS,PATENTS AND LICENSING, priority 2006, published 2010).
Counter-ions that a name gives are not always drawn.

What was measured:
[1] = molecular target: T1, adenosine A1 receptor (Homo sapiens, UniProt P30542); experiment: Indirect determination of adenosine agonism by gene expression (luciferase, cAMP-dependent promoter), A1 cells; type: cell-based; conditions: CHO cells stably transfected with A1 receptor cDNA; 1 μM forskolin; concentration at which 50% of the luciferase answer is inhibited
T1 construct: expressed in transfected cells; host or cells: CHO (Chinese Hamster Ovary) cells, stably transfected
T1 sequence (P30542 1-326): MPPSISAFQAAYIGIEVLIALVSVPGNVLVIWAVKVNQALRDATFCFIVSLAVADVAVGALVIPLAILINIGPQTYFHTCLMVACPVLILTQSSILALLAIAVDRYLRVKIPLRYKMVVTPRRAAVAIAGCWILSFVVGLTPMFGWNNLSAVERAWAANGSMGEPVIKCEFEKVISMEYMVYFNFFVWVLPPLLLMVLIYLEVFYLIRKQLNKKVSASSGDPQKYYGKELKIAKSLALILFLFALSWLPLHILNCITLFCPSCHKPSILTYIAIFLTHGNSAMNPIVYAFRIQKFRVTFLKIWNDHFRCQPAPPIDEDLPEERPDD
Description: (§1) Indirect Determination of the Adenosine Agonism by Way of Gene Expression
(§2) Cells of the CHO (Chinese Hamster Ovary) permanent cell line are transfected stably with the cDNA for the adenosine receptor subtypes A1, A2a and A2b. The adenosine A1 receptors are coupled to the adenylate cyclase by way of Gi proteins, while the adenosine A2a and A2b receptors are coupled by way of Gs proteins. In correspondence with this, the formation of cAMP in the cell is inhibited or stimulated, respectively. After that, expression of the luciferase is modulated by way of a cAMP-dependent promoter. The luciferase test is optimized, with the aim of high sensitivity and reproducibility, low variance and good suitability for implementation on a robot system, by varying several test parameters, such as cell density, duration of the growth phase and the test incubation, forskolin concentration and medium composition. The following test protocol is used for pharmacologically characterizing cells and for the robot-assisted substance screening:
(§3) The stock cultures are grown, at 37° C. and under 5% CO2, in DMEM/F12 medium containing 10% FCS (foetal calf serum) and in each case split 1:10 after 2-3 days. The test cultures are seeded in 384-well plates with 2000 cells per well and grown at 37° C. for approx. 48 hours. The medium is then replaced with a physiological sodium chloride solution (130 mM sodium chloride, 5 mM potassium chloride, 2 mM calcium chloride, 20 mM HEPES, 1 mM magnesium chloride hexahydrate, 5 mM sodium bicarbonate, pH 7.4). The substances to be tested, which are dissolved in DMSO, are pipetted into the test cultures (maximum final concentration of DMSO in the test mixture: 0.5%) in a dilution series of from 1.1×10^−11M to 3×10^−6M (final concentration). 10 minutes later, forskolin is added to the A1 cells and all the cultures are subsequently incubated at 37° C. for four hours. After that, 35 μl of a solution which is composed of 50% lysis reagent (30 mM disodium hydrogenphosphate, 10% glycerol, 3% TritonX100, 25 mM TrisHCl, 2 mM dithiotreitol (DTT), pH 7.8) and 50% luciferase substrate solution (2.5 mM ATP, 0.5 mM luciferin, 0.1 mM coenzyme A, 10 mM tricine, 1.35 mM magnesium sulfate, 15 mM DTT, pH 7.8) are added to the test cultures, which are shaken for approx. 1 minute and the luciferase activity is measured using a camera system. The EC50 values are determined, i.e., the concentrations at which 50% of the luciferase answer is inhibited in the case of the A1 cell, and, respectively, 50% of the maximum stimulation with the corresponding substance is achieved in the case of the A2b and A2a cells. […] Pharmacol., 357 (1998), 1-9).
(§4) Table 1 below lists the EC50 values of representative working examples of compounds of the formula (IA) for the receptor stimulation on adenosine A1, A2a and A2b receptor subtypes: […]

[2] = molecular target: T2, adenosine A2a receptor (Homo sapiens, UniProt P29274); experiment: Indirect determination of adenosine agonism by gene expression (luciferase, cAMP-dependent promoter), A2a cells; type: cell-based; conditions: CHO cells stably transfected with A2a receptor cDNA; 50% of maximum stimulation of luciferase
T2 construct: expressed in transfected cells; host or cells: CHO (Chinese Hamster Ovary) cells, stably transfected
Description: as §1, §2, §3, §4

[3] = molecular target: T3, adenosine A2b receptor (Homo sapiens, UniProt P29275); experiment: Indirect determination of adenosine agonism by gene expression (luciferase, cAMP-dependent promoter), A2b cells; type: cell-based; conditions: CHO cells stably transfected with A2b receptor cDNA; 50% of maximum stimulation of luciferase
T3 construct: expressed in transfected cells; host or cells: CHO (Chinese Hamster Ovary) cells, stably transfected
T3 sequence (P29275 1-332): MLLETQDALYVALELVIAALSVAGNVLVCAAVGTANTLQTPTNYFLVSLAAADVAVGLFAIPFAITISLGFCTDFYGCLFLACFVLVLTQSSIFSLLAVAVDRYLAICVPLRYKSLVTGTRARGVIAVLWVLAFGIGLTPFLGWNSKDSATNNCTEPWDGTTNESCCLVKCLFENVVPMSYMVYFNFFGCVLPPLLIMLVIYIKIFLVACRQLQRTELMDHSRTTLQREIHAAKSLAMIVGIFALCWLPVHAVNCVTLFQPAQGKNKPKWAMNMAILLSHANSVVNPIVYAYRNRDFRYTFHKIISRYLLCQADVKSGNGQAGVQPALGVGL
Description: as §1, §2, §3, §4

T2 sequence (P29274 whole entry): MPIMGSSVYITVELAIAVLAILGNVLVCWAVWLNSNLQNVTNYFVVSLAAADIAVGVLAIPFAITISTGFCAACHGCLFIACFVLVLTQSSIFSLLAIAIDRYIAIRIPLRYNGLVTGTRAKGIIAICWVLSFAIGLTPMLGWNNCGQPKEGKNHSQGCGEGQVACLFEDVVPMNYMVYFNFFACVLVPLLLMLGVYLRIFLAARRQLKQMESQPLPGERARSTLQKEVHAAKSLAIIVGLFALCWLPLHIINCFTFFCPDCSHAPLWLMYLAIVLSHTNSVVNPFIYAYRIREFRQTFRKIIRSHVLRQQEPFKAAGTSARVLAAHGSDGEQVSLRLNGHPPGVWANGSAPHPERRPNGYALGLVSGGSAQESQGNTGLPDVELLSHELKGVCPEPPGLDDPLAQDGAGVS

Row | Compound | melting point [°C] | EC50 [1] [nM] | EC50 [2] [nM] | EC50 [3] [nM]
1 | N#Cc1c(N)nc(SCc2csc(Nc3cccc(Cl)c3)n2)c(C#N)c1-c1ccc(OCC(O)CO)cc1 (stereo not shown) [Example 1, 2-Amino-6-[({2-[(3-chlorophenyl)amino]-1,3-thiazol-4-yl}methyl)thio]-4-[4-(2,3-dihydroxypropoxy)phenyl]pyridine-3,5-dicarbonitrile] | 192 to 194 | – | – | –
2 | Cc1cccc(Nc2nc(CSc3nc(N)c(C#N)c(-c4ccc(OCC(O)CO)cc4)c3C#N)cs2)c1 (stereo not shown) [Example 2] | – | 9.9 | 747 | 6.1
3 | N#Cc1c(N)nc(SCc2csc(Nc3ccc(F)cc3)n2)c(C#N)c1-c1ccc(OCCO)cc1 [Example 8, 2-Amino-6-[({2-[(4-fluorophenyl)amino]-1,3-thiazol-4-yl}methyl)thio]-4-[4-(2-hydroxyethoxy)-phenyl]pyridine-3,5-dicarbonitrile] | – | 1 | 300 | 1
4 | N#Cc1c(N)nc(SCc2csc(Nc3ccc(F)cc3F)n2)c(C#N)c1-c1ccc(OCCO)cc1 [Example 10, 2-Amino-6-[({2-[(2,4-difluorophenyl)amino]-1,3-thiazol-4-yl}methyl)thio]-4-[4-(2-hydroxyethoxy)phenyl]pyridine-3,5-dicarbonitrile] | – | 2 | > 200 | 1
5 | N#Cc1c(N)nc(SCc2csc(Nc3ccc(C(=O)O)cc3)n2)c(C#N)c1-c1ccc(OCCO)cc1 [Example 13, 4-({4-[({6-Amino-3,5-dicyano-4-[4-(2-hydroxyethoxy)phenyl]pyridin-2-yl}thio)methyl]-1,3-thiazol-2-yl}amino)benzoic acid] | – | 0.2 | 236 | 0.1
6 | N#Cc1ccc(Nc2nc(CSc3nc(N)c(C#N)c(-c4ccc(OCCO)cc4)c3C#N)cs2)cc1 [Example 21] | – | 0.7 | 103 | 0.5
7 | COCCOc1ccc(-c2c(C#N)c(N)nc(SCc3csc(Nc4ccc(C)cc4)n3)c2C#N)cc1 [Example 26] | – | 23 | > 3000 | 74
8 | N#Cc1c(N)nc(SCc2csc(Nc3cccc(Cl)c3)n2)c(C#N)c1-c1ccc(OC[C@@H](O)CO)cc1 [Example 35] | – | 0.4 | 142 | 0.3
9 | COc1cc(Nc2nc(CSc3nc(N)c(C#N)c(-c4ccc(OC[C@@H](O)CO)cc4)c3C#N)cs2)ccc1F [Example 39] | – | 0.3 | 1200 | 1.4
10 | N#Cc1c(N)nc(SCc2csc(Nc3cccc(F)c3)n2)c(C#N)c1-c1ccc(OC[C@@H](O)CO)cc1 [Example 44] | – | 0.6 | 140 | 0.3
11 | N#Cc1c(N)nc(SCc2csc(Nc3ccc(F)c(Cl)c3)n2)c(C#N)c1-c1ccc(OC[C@@H](O)CO)cc1 [Example 48] | – | 0.4 | 140 | 0.1
12 | N#Cc1c(N)nc(SCc2csc(Nc3ccc(F)cc3)n2)c(C#N)c1-c1ccc(OCCN)cc1 [Example 70, 2-Amino-4-[4-(2-aminoethoxy)phenyl]-6-[({2-[(4-fluorophenyl)amino]-1,3-thiazol-4-yl}methyl)-thio]pyridine-3,5-dicarbonitrile hydrochloride] | – | 2.3 | > 3000 | 28
